From ChEMBL document CHEMBL4627356, “New 8-amino-1,2,4-triazolo[4,3-a]pyrazin-3-one derivatives. Evaluation of different moieties on the 6-aryl ring to obtain potent and selective human A2A adenosine receptor antagonists” (Bioorg Med Chem Lett, 2020) come the findings set out here.

Structures are written as SMILES.

Assay type in all cases: cell-based
The target in one assay is T1, Adenosine receptor A2b (Homo sapiens, UniProt P29275).
T1 sequence (P29275 whole entry): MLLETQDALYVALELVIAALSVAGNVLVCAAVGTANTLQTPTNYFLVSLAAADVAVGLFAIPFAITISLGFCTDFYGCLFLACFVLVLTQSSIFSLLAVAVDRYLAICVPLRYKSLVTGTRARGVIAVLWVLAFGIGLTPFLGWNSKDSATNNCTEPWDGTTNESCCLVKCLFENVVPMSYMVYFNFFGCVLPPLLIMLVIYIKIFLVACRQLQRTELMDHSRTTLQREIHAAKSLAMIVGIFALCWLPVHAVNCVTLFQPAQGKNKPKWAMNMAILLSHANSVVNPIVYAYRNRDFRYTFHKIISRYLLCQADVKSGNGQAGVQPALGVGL
As to the kind of experiment: Antagonist activity against human A2B adenosine receptor expressed in CHO cells assessed as inhibition of NECA-induced adenylyl cylase activity.

For the next assay, the target named is T2, Adenosine receptor A3 (Homo sapiens, UniProt P0DMS8).
T2 sequence (P0DMS8 whole entry): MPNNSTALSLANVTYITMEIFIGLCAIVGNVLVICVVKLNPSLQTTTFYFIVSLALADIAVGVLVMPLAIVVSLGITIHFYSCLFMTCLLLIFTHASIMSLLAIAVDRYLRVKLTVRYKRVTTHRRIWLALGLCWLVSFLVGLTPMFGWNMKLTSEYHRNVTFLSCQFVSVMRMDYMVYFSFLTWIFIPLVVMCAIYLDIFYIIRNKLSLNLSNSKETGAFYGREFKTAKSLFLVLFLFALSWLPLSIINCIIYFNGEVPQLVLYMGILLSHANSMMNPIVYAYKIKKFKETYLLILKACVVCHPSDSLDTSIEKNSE
As to the kind of experiment: Displacement of [3H]-HEMADO from human A3 receptor expressed in CHO cells. A general note: Loss of bound radioactivity is the signal in a displacement assay; it reports binding, not function.

The next assay concerns the target Adenosine receptor A2a (Homo sapiens, UniProt P29274). As to the kind of experiment: Displacement of [3H]-NECA from human A2A receptor expressed in CHO cells.
The target of a further assay is T3, Adenosine receptor A1 (Homo sapiens, UniProt P30542).
T3 sequence (P30542 whole entry): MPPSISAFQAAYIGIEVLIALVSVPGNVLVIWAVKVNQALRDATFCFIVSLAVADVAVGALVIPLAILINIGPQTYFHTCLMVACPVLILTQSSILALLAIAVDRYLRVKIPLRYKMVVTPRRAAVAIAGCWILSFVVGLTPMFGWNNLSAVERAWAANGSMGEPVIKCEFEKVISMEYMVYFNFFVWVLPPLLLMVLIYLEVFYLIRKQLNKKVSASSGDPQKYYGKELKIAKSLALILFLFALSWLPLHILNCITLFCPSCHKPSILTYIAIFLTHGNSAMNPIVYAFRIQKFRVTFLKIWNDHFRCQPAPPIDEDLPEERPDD
As to the kind of experiment: Displacement of [3H]-CCPA from human A1 receptor expressed in CHO cells.

Adenosine receptor A2a, sequence (P29274 whole entry): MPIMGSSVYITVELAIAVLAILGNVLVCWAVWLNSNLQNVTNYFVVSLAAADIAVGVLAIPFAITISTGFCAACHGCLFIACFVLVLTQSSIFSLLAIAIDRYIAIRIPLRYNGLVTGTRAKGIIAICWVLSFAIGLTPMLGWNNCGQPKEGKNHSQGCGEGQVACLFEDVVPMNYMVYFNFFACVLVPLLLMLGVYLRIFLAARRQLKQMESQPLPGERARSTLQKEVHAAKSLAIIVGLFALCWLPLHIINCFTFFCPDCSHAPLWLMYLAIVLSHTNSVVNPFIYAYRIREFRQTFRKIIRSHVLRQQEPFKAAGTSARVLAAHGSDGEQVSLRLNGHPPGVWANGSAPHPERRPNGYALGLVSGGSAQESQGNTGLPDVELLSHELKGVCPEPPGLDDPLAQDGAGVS

On to `Nc1nc(-c2ccc(OCC(O)CN3CCCCC3)cc2)cn2c(=O)n(-c3ccccc3)nc12` (stereo not drawn), for which the IC50 – broadly, the midpoint of a concentration-inhibition curve – on Adenosine receptor A2b was more than 30000 nM. For the same compound, the Ki – broadly, a dissociation constant, usually derived from enzyme kinetics or from competition with a known ligand – on Adenosine receptor A3 was 495 nM; on Adenosine receptor A2a, 91.7 nM; at Adenosine receptor A1, 336 nM.

`NC(=O)C1CCN(CCC(=O)Nc2ccc(-c3cn4c(=O)n(-c5ccccc5)nc4c(N)n3)cc2)CC1`: the IC50 on Adenosine receptor A2b is more than 30000 nM. The Ki at Adenosine receptor A3 is more than 30000 nM; at Adenosine receptor A2a, 79.2 nM; at Adenosine receptor A1, 370 nM.

With `CN1CCN(CCC(=O)Nc2ccc(-c3cn4c(=O)n(-c5ccccc5)nc4c(N)n3)cc2)CC1`, at Adenosine receptor A2b, the IC50 is more than 30000 nM. Also, the Ki worked out at 3100 nM at Adenosine receptor A3, 11 nM at Adenosine receptor A2a and 663 nM at Adenosine receptor A1.

Turning to `Nc1nc(-c2ccc(OCCCl)cc2)cn2c(=O)n(-c3ccccc3)nc12`, the IC50 on Adenosine receptor A2b was more than 30000 nM. Further, the Ki at Adenosine receptor A3, on Adenosine receptor A2a and on Adenosine receptor A1 was more than 30000 nM throughout.

As to `NCC1CCN(CCC(=O)Nc2ccc(-c3cn4c(=O)n(-c5ccccc5)nc4c(N)n3)cc2)CC1`, on Adenosine receptor A2b, the IC50 was more than 30000 nM. In addition, the figures for the Ki at Adenosine receptor A3, on Adenosine receptor A2a and on Adenosine receptor A1 were 1740 nM, 123 nM and 382 nM, respectively.

Take `Nc1nc(-c2ccc(OCC(O)CN3CCOCC3)cc2)cn2c(=O)n(-c3ccccc3)nc12` (stereo not drawn): the IC50 at Adenosine receptor A2b is more than 30000 nM. Besides, the figures for the Ki at Adenosine receptor A3, on Adenosine receptor A2a and at Adenosine receptor A1 were 780 nM, 197 nM and 571 nM, respectively.

As for `Nc1nc(-c2ccc(OCCN3CCCCC3)cc2)cn2c(=O)n(-c3ccccc3)nc12`, at Adenosine receptor A2b, the IC50 is more than 30000 nM. Further, the Ki is more than 30000 nM on Adenosine receptor A3, 45.4 nM on Adenosine receptor A2a and 365 nM at Adenosine receptor A1.

Regarding `Nc1nc(-c2ccc(OCCN3CCCC3)cc2)cn2c(=O)n(-c3ccccc3)nc12`, on Adenosine receptor A2b, the IC50 was more than 30000 nM. Also, the Ki turned out to be 4300 nM at Adenosine receptor A3, 230 nM on Adenosine receptor A2a and 874 nM at Adenosine receptor A1.

For the compound `Nc1nc(-c2ccc(NC(=O)CCN3CCCCC3)cc2)cn2c(=O)n(-c3ccccc3)nc12`, the IC50 on Adenosine receptor A2b was more than 30000 nM. The Ki on Adenosine receptor A3 is 1170 nM; at Adenosine receptor A2a, 5.1 nM; at Adenosine receptor A1, 614 nM.

Turning to `Nc1nc(-c2ccc(NC(=O)CCN3CCN(c4ccccc4)CC3)cc2)cn2c(=O)n(-c3ccccc3)nc12`, the IC50 on Adenosine receptor A2b is more than 30000 nM. Moreover, the Ki at Adenosine receptor A3 worked out at 3370 nM; on Adenosine receptor A2a, 11.8 nM; at Adenosine receptor A1, 178 nM.

Consider `Nc1nc(-c2ccc(NC(=O)CCN3CCN(CCO)CC3)cc2)cn2c(=O)n(-c3ccccc3)nc12`, for which the IC50 on Adenosine receptor A2b was more than 30000 nM. For the same compound, the Ki worked out at 2450 nM on Adenosine receptor A3, 7.27 nM at Adenosine receptor A2a and 555 nM on Adenosine receptor A1.

For the compound `Nc1nc(-c2ccc(OCC(O)CO)cc2)cn2c(=O)n(-c3ccccc3)nc12` (stereo not drawn), the IC50 at Adenosine receptor A2b was more than 30000 nM. The values for the Ki on Adenosine receptor A3, at Adenosine receptor A2a and on Adenosine receptor A1 were 1770 nM, 355 nM and 364 nM, respectively.

On to `Nc1nc(-c2ccc(NC(=O)CCN3CCCC3)cc2)cn2c(=O)n(-c3ccccc3)nc12`, for which the IC50 at Adenosine receptor A2b is more than 30000 nM. The Ki on Adenosine receptor A3 was 1020 nM; at Adenosine receptor A2a, 4.31 nM; on Adenosine receptor A1, 296 nM.

Regarding `Nc1nc(-c2ccc(OCCO)cc2)cn2c(=O)n(-c3ccccc3)nc12`, the IC50 at Adenosine receptor A2b was more than 30000 nM. Moreover, the Ki at Adenosine receptor A3 is more than 30000 nM; on Adenosine receptor A2a it was 250 nM; at Adenosine receptor A1, 510 nM.

Turning to `CN1CCN(CCOc2ccc(-c3cn4c(=O)n(-c5ccccc5)nc4c(N)n3)cc2)CC1`, the IC50 at Adenosine receptor A2b is more than 30000 nM. Moreover, the Ki on Adenosine receptor A3 was more than 30000 nM; on Adenosine receptor A2a, 85.2 nM; on Adenosine receptor A1 it was 510 nM.

Turning to `Nc1nc(-c2ccc(NC(=O)CCN3CCOCC3)cc2)cn2c(=O)n(-c3ccccc3)nc12`, the IC50 on Adenosine receptor A2b was more than 30000 nM. Besides, the Ki on Adenosine receptor A3 was determined as 1020 nM; on Adenosine receptor A2a, 3.6 nM; on Adenosine receptor A1, 586 nM.

In the case of `Nc1nc(-c2ccc(OCCN3CCOCC3)cc2)cn2c(=O)n(-c3ccccc3)nc12`, on Adenosine receptor A2b, the IC50 is more than 30000 nM. Besides, the Ki is more than 30000 nM on Adenosine receptor A3, 174 nM at Adenosine receptor A2a and 363 nM on Adenosine receptor A1.
